In assay [1] the test system is EA.hy.926 cells. In words: DNA synthesis (tritiated thymidine incorporation) in EA.hy.926 cells stimulated with 10% FBS. The note with it: 24 hours, starting from the concentration of 10^−12 M. Format: cell-based, human. On the procedure:
Endothelial human cells EA.hy.926 were grown in DMEM supplemented with 10% fetal bovine serum (FBS) and with the appropriate concentrations of glutamine and antibiotics. Before the experiments, the cells had been deprived of serum for 24 hours in 0.1% FBS. EA.hy.926 cells were inoculated in 96 well-plates and, after being deprived of serum for 24 hours, were 'stimulated with 10% FBS in the presence or in the absence of different concentrations of the peptide 6-49 or of endostatin for further 24 hours. Tritiated tymidine (1 μCi/well) was added during the last 6 hours of incubation. The cells were then extracted in 10% TCA and the radioactivity incorporated in the TCA-insoluble fraction was determined after solubilization in 0.5 M NaOH. The results, reported in FIGS. 3a and 3b, are expressed as the percentage of the maximal stimulation induced by 10% serum in the absence of the drug.
(In general: Incorporation of labelled thymidine or its analogues reports DNA synthesis.)

Another assay deals with endothelial cells. In words: Tubules formation by endothelial cells on Matrigel. Format: cell-based. The following applies: endothelial cells on Matrigel with FGF or VEGF; area quantified by NIH Image. On the procedure:
The formation of tubular structures, similar to capillaries, was evaluated by seeding the endothelial cells on a Matrigel carrier, a re-constructed basal membrane, with the characteristic of being liquid at 4° C. and of undergoing polymerization at 37° C. forming a tri-dimensional gel. Proangiogenic factors, such as Fibroblast Growth Factor (FGF) or Vascular Endothelial Growth Factor (VEGF), were added to the medium in the presence of the peptide 9-49 and the plate's were incubated at 37° C. under 5% CO2 atmosphere. Tubules formation was monitored observing the cells with an inverted microscope and, after recording the image by means of photography, a quantification was performed by evaluating the area occupied by the cells and by the capillaries network. Upon observation under the microscope, it is evident that the peptide of invention is able to inhibit the capacity of endothelial cells to form tubular structures similar to capillaries, which on the contrary are clearly evident in the untreated control cells (FIG. 4A). In FIG. 4B, a quantitative analysis of the effect, carried out by a proper software (NIH Image), is reported.

The test system of assay [2] is EA.hy.926 cells. In words: EA.hy.926 cell migration, chemotaxis test in Boyden chamber. Format: cell-based, human. The note with it: glioma conditioned medium as chemotactic stimulus, 4 hours, at/starting from 10^−9 M. As to the method: Endothelial human cells EA.hy.926 were grown in DMEM supplemented with 10% fetal bovine serum (FBS) and with the appropriate concentrations of glutamine and antibiotics. Before the experiments, the cells had been deprived of serum for 24 hours in 0.1% FBS. EA.hy.926 cells migration has been evaluated by chemotaxis test in a 48 well Boyden chamber using polycarbonate filters of 12 μm porosity pre-treated with a 10 μg/ml type I collagen solution. […] The chemotactic stimulus, represented by a conditioned medium obtained by a culture of glioma cells, was added to the lower chamber. After 4 hours of incubation at 37° C., non migrated cells were removed by a scraper and the filter was colored with Diff Quick. Migrated cells were then counted at a 400×magnification in 6 different fields. The results, reported in FIG. 2, are expressed as a percentage of the maximal migration induced by the conditioned medium in the presence of the peptide or of endostatin.

A further assay has as its system male mice C57/b16. The experiment in a line: Matrigel pellet s.c. in mice, hemoglobin amount (Drabkin's method). The assay is classed as in vivo. The note with it: Matrigel with FGF 2 ng/ml and heparin 36 U/ml s.c., 4 days; dose of 1 mg/mouse; compared with controls. As to the method:
[…] of Matrigel containing FGF 2 ng/ml and heparin 36 U/ml were inoculated s.c. in the abdominal region of male mice C57/b16, of age from 6 to 10 weeks. […] Six animals were used in each experiment. After 4 days, the gelatinized Matrigel pellet was recovered and the amount of hemoglobin therein was measured by means of a commercial kit based on Drabkin's method ([…] Aldrich).

Ends that are not written are not given here. * marks the point of attachment. Acm = CC(=O)NC*

As to “FQPVLHLVALNSPLSGGMRGIRGADFQC(Acm)FQQARAVGLAGTFRAF [Peptide 6-49, tetratetracontapeptide]”, the “maximal inhibition of DNA synthesis” value in the assay on EA.hy.926 cells [1] is “about 80%”. The “tubules formation compared with controls, considered as 100%” value with endothelial cells is 23%. Also, the “maximal inhibition of cell migration” value in the assay on EA.hy.926 cells [2] was “about 60%”. Moreover, in the assay with male mice C57/b16, the “hemoglobin levels in the Matrigel pellets” value is “capable of reducing hemoglobin levels”.

For the origin of these results see patent publication US20040073007A1, “Antiangiogenic peptides” (priority 2001, published 2004).
